# Key:
# Assay type in all cases: cell-based
# [1] = test system: Salmonella typhimurium TA98; assay: Ames test (reverse mutation test), TA98
# Protocol: (§1) The solvent used herein was dimethyl sulfoxide (DMSO, 100 µL/plate).
# (§2) The mixtures were preincubated at 37° C. for 20 minutes while shaking. […] Two plates per treatment were used.
# [2] = test system: Salmonella typhimurium TA1537; assay: Ames test (reverse mutation test), TA1537
# Protocol: as §1, §2
# [3] = test system: Salmonella typhimurium TA100; assay: Ames test (reverse mutation test), TA100
# Protocol: as §1, §2
# [4] = test system: Salmonella typhimurium TA1535; assay: Ames test (reverse mutation test), TA1535
# Protocol: as §1, §2
# Escherichia coli WP2uvrA = assay: Ames test (reverse mutation test), WP2uvrA; details: WP2uvrA
# Protocol: as §1, §2
# [5] = test system: Salmonella typhimurium (TA98, TA1537, TA100, and TA1535) and Escherichia coli (WP2uvrA); assay: Ames test (reverse mutation test), overall conclusion over all tester strains; details: all bacterial tester strains, with and/or without S9 mix
# Protocol: as §1, §2
# Details are explained as follows.
structure (smiles),measurement,setting,value
Nc1cc(-c2cc(F)cc(OC(F)(F)F)c2)n(-c2cncc(C(F)(F)F)c2)n1 [Metabolite 5],Number of revertant colonies,"[1]; TA98, +S9 mix, 6.9 µg/plate",36
same,Number of revertant colonies,"[1]; TA98, +S9 mix, 21 µg/plate",38
same,Number of revertant colonies,"[1]; TA98, +S9 mix, 62 µg/plate",38
same,Number of revertant colonies,"[1]; TA98, +S9 mix, 185 µg/plate",33
same,Number of revertant colonies,"[1]; TA98, +S9 mix, 556 µg/plate",27
same,Number of revertant colonies,"[1]; TA98, +S9 mix, 1667 µg/plate",25
same,Number of revertant colonies,"[1]; TA98, +S9 mix, 5000 µg/plate",17
same,Number of revertant colonies,"[1]; TA98, -S9 mix, 6.9 µg/plate",29
same,Number of revertant colonies,"[1]; TA98, -S9 mix, 21 µg/plate",28
same,Number of revertant colonies,"[1]; TA98, -S9 mix, 62 µg/plate",29
same,Number of revertant colonies,"[1]; TA98, -S9 mix, 185 µg/plate",26
same,Number of revertant colonies,"[1]; TA98, -S9 mix, 556 µg/plate",24
same,Number of revertant colonies,"[1]; TA98, -S9 mix, 1667 µg/plate",18
same,Number of revertant colonies,"[1]; TA98, -S9 mix, 5000 µg/plate",14
same,Number of revertant colonies,"[2]; TA1537, +S9 mix, 6.9 µg/plate",13
same,Number of revertant colonies,"[2]; TA1537, +S9 mix, 21 µg/plate",11
same,Number of revertant colonies,"[2]; TA1537, +S9 mix, 62 µg/plate",12
same,Number of revertant colonies,"[2]; TA1537, +S9 mix, 185 µg/plate",12
same,Number of revertant colonies,"[2]; TA1537, +S9 mix, 556 µg/plate",8
same,Number of revertant colonies,"[2]; TA1537, +S9 mix, 1667 µg/plate",3
same,Number of revertant colonies,"[2]; TA1537, +S9 mix, 5000 µg/plate",1
same,Number of revertant colonies,"[2]; TA1537, -S9 mix, 6.9 µg/plate",8
same,Number of revertant colonies,"[2]; TA1537, -S9 mix, 21 µg/plate",7
same,Number of revertant colonies,"[2]; TA1537, -S9 mix, 62 µg/plate",8
same,Number of revertant colonies,"[2]; TA1537, -S9 mix, 185 µg/plate",7
same,Number of revertant colonies,"[2]; TA1537, -S9 mix, 556 µg/plate",2
same,Number of revertant colonies,"[2]; TA1537, -S9 mix, 1667 µg/plate",3
same,Number of revertant colonies,"[2]; TA1537, -S9 mix, 5000 µg/plate",2
same,Number of revertant colonies,"[3]; TA100, +S9 mix, 6.9 µg/plate",134
same,Number of revertant colonies,"[3]; TA100, +S9 mix, 21 µg/plate",123
same,Number of revertant colonies,"[3]; TA100, +S9 mix, 62 µg/plate",108
same,Number of revertant colonies,"[3]; TA100, +S9 mix, 185 µg/plate",103
same,Number of revertant colonies,"[3]; TA100, +S9 mix, 556 µg/plate",99
same,Number of revertant colonies,"[3]; TA100, +S9 mix, 1667 µg/plate",67
same,Number of revertant colonies,"[3]; TA100, +S9 mix, 5000 µg/plate",43
same,Number of revertant colonies,"[3]; TA100, -S9 mix, 6.9 µg/plate",88
same,Number of revertant colonies,"[3]; TA100, -S9 mix, 21 µg/plate",91
same,Number of revertant colonies,"[3]; TA100, -S9 mix, 62 µg/plate",93
same,Number of revertant colonies,"[3]; TA100, -S9 mix, 185 µg/plate",92
same,Number of revertant colonies,"[3]; TA100, -S9 mix, 556 µg/plate",59
same,Number of revertant colonies,"[3]; TA100, -S9 mix, 1667 µg/plate",29
same,Number of revertant colonies,"[3]; TA100, -S9 mix, 5000 µg/plate",12
same,Number of revertant colonies,"[4]; TA1535, +S9 mix, 62 µg/plate",10
same,Number of revertant colonies,"[4]; TA1535, -S9 mix, 5000 µg/plate",4
same,Number of revertant colonies,"Escherichia coli WP2uvrA; +S9 mix, 6.9 µg/plate",22
same,Number of revertant colonies,"Escherichia coli WP2uvrA; +S9 mix, 21 µg/plate",22
same,Number of revertant colonies,"Escherichia coli WP2uvrA; +S9 mix, 62 µg/plate",21
same,Number of revertant colonies,"Escherichia coli WP2uvrA; +S9 mix, 185 µg/plate",21
same,Number of revertant colonies,"Escherichia coli WP2uvrA; +S9 mix, 556 µg/plate",18
same,Number of revertant colonies,"Escherichia coli WP2uvrA; +S9 mix, 1667 µg/plate",21
same,Number of revertant colonies,"Escherichia coli WP2uvrA; +S9 mix, 5000 µg/plate",19
same,Number of revertant colonies,"Escherichia coli WP2uvrA; -S9 mix, 6.9 µg/plate",23
same,Number of revertant colonies,"Escherichia coli WP2uvrA; -S9 mix, 21 µg/plate",15
same,Number of revertant colonies,"Escherichia coli WP2uvrA; -S9 mix, 62 µg/plate",23
same,Number of revertant colonies,"Escherichia coli WP2uvrA; -S9 mix, 185 µg/plate",20
same,Number of revertant colonies,"Escherichia coli WP2uvrA; -S9 mix, 556 µg/plate",22
same,Number of revertant colonies,"Escherichia coli WP2uvrA; -S9 mix, 1667 µg/plate",19
same,Number of revertant colonies,"Escherichia coli WP2uvrA; -S9 mix, 5000 µg/plate",14
same,potential to induce reverse mutations,[5],did not show potential to induce reverse mutations
